Each structure is given as a SMILES string. Bounds are passed on as bounds.

One assay addresses T1, human NaPi-2a (Homo sapiens, UniProt Q06495).
T1 construct: expressed in transfected cells
T1 sequence (Q06495 1-639): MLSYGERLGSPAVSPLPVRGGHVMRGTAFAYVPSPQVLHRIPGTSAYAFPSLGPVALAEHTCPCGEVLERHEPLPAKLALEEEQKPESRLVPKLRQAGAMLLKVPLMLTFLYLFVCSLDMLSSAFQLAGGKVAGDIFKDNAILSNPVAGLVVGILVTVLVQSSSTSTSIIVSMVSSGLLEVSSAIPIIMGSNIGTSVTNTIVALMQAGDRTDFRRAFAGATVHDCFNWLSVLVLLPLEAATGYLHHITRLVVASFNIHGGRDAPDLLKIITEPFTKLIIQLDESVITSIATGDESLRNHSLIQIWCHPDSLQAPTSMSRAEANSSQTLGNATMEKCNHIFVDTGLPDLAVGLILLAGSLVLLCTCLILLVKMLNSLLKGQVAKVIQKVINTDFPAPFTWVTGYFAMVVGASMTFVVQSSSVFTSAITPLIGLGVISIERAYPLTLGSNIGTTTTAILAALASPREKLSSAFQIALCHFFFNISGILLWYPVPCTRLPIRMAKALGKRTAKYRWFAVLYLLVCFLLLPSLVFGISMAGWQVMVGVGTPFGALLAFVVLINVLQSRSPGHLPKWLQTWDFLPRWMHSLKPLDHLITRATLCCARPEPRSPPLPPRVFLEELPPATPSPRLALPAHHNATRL
In words: Sodium-dependent phosphate uptake of Xenopus oocytes which expressed NaPi-2a (32P). Format: cell-based. Conditions: phosphate uptake, Xenopus oocytes expressing human NaPi-2a; five concentration levels. The text has this: Experiment of Sodium-Dependent Phosphate Uptake of Xenopus oocytes which Expressed NaPi-2a
In the test, a group with the addition of choline chloride (Choline Cl) was used as a negative control for nonspecific uptake, and PFA (phosphonoformic acid) was used as a positive control for phosphate transport inhibition.

The target in the next assay is T2, rat NaPi-2b (Rattus norvegicus, UniProt Q9JJ09).
T2 construct: expressed in transfected cells; host or cells: Xenopus oocytes injected with cRNA
T2 sequence (Q9JJ09 1-695): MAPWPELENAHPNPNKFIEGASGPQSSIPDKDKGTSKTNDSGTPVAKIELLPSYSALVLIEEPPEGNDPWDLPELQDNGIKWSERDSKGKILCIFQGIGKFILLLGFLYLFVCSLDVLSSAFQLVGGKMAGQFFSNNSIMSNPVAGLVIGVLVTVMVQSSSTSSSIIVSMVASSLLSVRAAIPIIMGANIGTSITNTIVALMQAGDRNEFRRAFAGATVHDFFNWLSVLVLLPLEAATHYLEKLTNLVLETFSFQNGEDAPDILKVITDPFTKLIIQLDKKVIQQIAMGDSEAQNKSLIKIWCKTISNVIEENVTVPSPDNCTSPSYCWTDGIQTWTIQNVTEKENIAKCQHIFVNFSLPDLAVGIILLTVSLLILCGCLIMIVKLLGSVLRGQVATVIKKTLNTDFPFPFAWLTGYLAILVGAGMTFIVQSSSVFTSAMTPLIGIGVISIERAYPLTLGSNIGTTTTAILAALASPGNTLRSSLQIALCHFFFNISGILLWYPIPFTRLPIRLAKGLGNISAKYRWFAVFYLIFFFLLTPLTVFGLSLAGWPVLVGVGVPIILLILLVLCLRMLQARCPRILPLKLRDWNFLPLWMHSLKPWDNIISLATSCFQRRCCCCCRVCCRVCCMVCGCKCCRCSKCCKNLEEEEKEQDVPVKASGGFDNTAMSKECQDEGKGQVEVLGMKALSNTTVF
Description: Sodium-dependent phosphate uptake of Xenopus oocytes which expressed NaPi-2b (32P). The assay is classed as cell-based. Conditions: Xenopus oocytes expressing rat NaPi-2b, 32P radioactive phosphorus; read-out: IC50 (phosphate uptake inhibitory activity). The method in brief: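 Read-out is 32P phosphate uptake into Xenopus oocytes expressing rat intestinal NaPi-2b (cRNA injection, 2-day culture). Inhibition at 300 μM and 100 μM was derived from a single inhibition curve and given as percent.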

Regarding `Cc1ccc(/C=N/NC(=O)c2c(NC(=O)c3cccc(CN(CC(C)O)CC(C)O)c3)sc(C)c2C)cc1` (centres unmarked) [Compound 845, 3-{[Bis-(2-hydroxy-propyl)-amino]-methyl}-N-[4,5-dimethyl-3-(4-methyl-benzylidene-hydrazinocarbonyl)-thiophen-2-yl]-benzamide], the IC50 against human NaPi-2a and on rat NaPi-2b was < 3 µM throughout.

In the case of `Cc1sc(NC(=O)c2cccc(CN(CC(C)O)CC(C)O)c2)c(C(=O)N/N=C/c2ccc(F)cc2)c1C` (centres unmarked) [Compound 846, 3-{[Bis-(2-hydroxy-propyl)-amino]-methyl}-N-[3-(4-fluoro-benzylidene-hydrazinocarbonyl)-4,5-dimethyl-thiophen-2-yl]-benzamide], the IC50 against human NaPi-2a and on rat NaPi-2b was < 3 µM throughout.

On to `CCN(CC)CCN(C)Cc1cccc(C(=O)Nc2ccc(N3CCCCC3)cc2C(=O)N/N=C/c2ccc(C)c(C)c2)c1` [Compound 858, 3-{[(2-Diethylamino-ethyl)-methyl-amino]-methyl}-N-[2-(3,4-dimethyl-benzylidene-hydrazinocarbonyl)-4-piperidin-1-ylphenyl]-benzamide], for which the IC50 against human NaPi-2a is < 1 µM; at rat NaPi-2b, 0.46 µM.

`CCN(CC)CCN(C)Cc1cccc(C(=O)Nc2ccc(N3CCCCC3)cc2C(=O)N/N=C/c2ccc(C)cc2)c1` [Compound 859, 3-{[(2-Diethylamino-ethyl)-methyl-amino]-methyl}-N-[2-(4-methyl-benzylidene-hydrazinocarbonyl)-4-piperidin-1-yl-phenyl]-benzamide]: the concentration for half-maximal inhibition (IC50) at human NaPi-2a was 1.6 µM; at rat NaPi-2b, 0.39 µM.

For the compound `CCN(CC)CCN(C)Cc1cccc(C(=O)Nc2ccc(N3CCCCC3)cc2C(=O)N/N=C/c2ccc(F)cc2)c1` [Compound 860, 3-{[(2-Diethylamino-ethyl)-methyl-amino]-methyl}-N-[2-(4-fluoro-benzylidene-hydrazinocarbonyl)-4-piperidin-1-yl-phenyl]-benzamide], the IC50 against human NaPi-2a is < 1 µM; on rat NaPi-2b, 0.65 µM.

For `CCN(CC)CCN(C)Cc1cccc(C(=O)Nc2ccc(N3CCCCC3)cc2C(=O)N/N=C/c2cccc(F)c2)c1` [Compound 861, 3-{[(2-Diethylamino-ethyl)-methyl-amino]-methyl}-N-[2-(3-fluoro-benzylidene-hydrazinocarbonyl)-4-piperidin-1-yl-phenyl]-benzamide], the half-maximal inhibitory concentration (IC50) was < 1 µM against human NaPi-2a and 0.52 µM on rat NaPi-2b.

As for `CCN(CC)CCN(C)Cc1cccc(C(=O)Nc2ccc(N3CCCCC3)cc2C(=O)N/N=C/c2ccc(Cl)c(C(F)(F)F)c2)c1` [Compound 862, N-[2-(4-Chloro-3-trifluoromethyl-benzylidene-hydrazinocarbonyl)-4-piperidin-1-yl-phenyl]-3-{[(2-diethylamino-ethyl)-methyl-amino]-methyl}-benzamide], the IC50 worked out at 1.65 µM against human NaPi-2a and 0.35 µM on rat NaPi-2b.

For the compound `CCN(CC)CCN(C)Cc1cccc(C(=O)Nc2ccc(N3CCCCC3)cc2C(=O)N/N=C/c2ccc(OC)cc2)c1` [Compound 863, 3-{[(2-Diethylamino-ethyl)-methyl-amino]-methyl}-N-[2-(4-methoxy-benzylidene-hydrazinocarbonyl)-4-piperidin-1-yl-phenyl]-benzamide], the IC50 against human NaPi-2a worked out at 6.9 µM; at rat NaPi-2b it was 1.22 µM.

Consider `Cc1ccc(/C=N/NC(=O)c2cc(N3CCCCC3)ccc2NC(=O)c2cccc(CN3CCN(CCO)CC3)c2)cc1C` [Compound 864, N-[2-(3,4-Dimethyl-benzylidene-hydrazinocarbonyl)-4-piperidin-1-yl-phenyl]-3-[4-(2-hydroxy-ethyl)-piperazin-1-ylmethyl]-benzamide], for which the IC50 on human NaPi-2a was 1.94 µM; on rat NaPi-2b, 0.74 µM.

Consider `Cc1ccc(/C=N/NC(=O)c2cc(N3CCCCC3)ccc2NC(=O)c2cccc(CN3CCN(CCO)CC3)c2)cc1` [Compound 865, 3-[4-(2-Hydroxy-ethyl)-piperazin-1-ylmethyl]-N-[2-(4-methyl-benzylidene-hydrazinocarbonyl)-4-piperidin-1-yl-phenyl]-benzamide], for which the values for the IC50 against human NaPi-2a and on rat NaPi-2b were 4.34 µM and 1.49 µM, respectively.

Take `CCN(CC)CCSCc1cccc(C(=O)Nc2ccc(N3CCCCC3)cc2C(=O)N/N=C/c2ccc(Cl)c(C(F)(F)F)c2)c1` [Compound 878, N-[2-(4-Chloro-3-trifluoromethyl-benzylidene-hydrazinocarbonyl)-4-piperidin-1-yl-phenyl]-3-(2-diethylamino-ethylsulfanylmethyl)-benzamide]: the IC50 against human NaPi-2a is 7.22 µM; at rat NaPi-2b, < 0.3 µM.

In the case of `Cc1ccc(/C=N/NC(=O)c2cc(N3CCCCC3)ccc2NC(=O)c2cccc(CSCCO)c2)cc1C` [Compound 880, N-[2-(3,4-Dimethyl-benzylidene-hydrazinocarbonyl)-4-piperidin-1-yl-phenyl]-3-(2-hydroxy-ethylsulfanylmethyl)-benzamide], the results for the IC50 at human NaPi-2a and at rat NaPi-2b were 1.3 µM and 0.08 µM, respectively.

`Cc1ccc(/C=N/NC(=O)c2cc(N3CCCCC3)ccc2NC(=O)c2cccc(CSCCO)c2)cc1` [Compound 881, 3-(2-Hydroxy-ethylsulfanylmethyl)-N-[2-(4-methyl-benzylidene-hydrazinocarbonyl)-4-piperidin-1-yl-phenyl]-benzamide]: the results for the IC50 against human NaPi-2a and at rat NaPi-2b were 2.67 µM and 0.18 µM, respectively.

With `O=C(Nc1ccc(N2CCCCC2)cc1C(=O)N/N=C/c1ccc(F)cc1)c1cccc(CSCCO)c1` [Compound 882, N-[2-(4-Fluoro-benzylidene-hydrazinocarbonyl)-4-piperidin-1-yl-phenyl]-3-(2-hydroxy-ethylsulfanylmethyl)-benzamide], the IC50 is 4.45 µM at human NaPi-2a and 0.33 µM on rat NaPi-2b.

For `O=C(Nc1ccc(N2CCCCC2)cc1C(=O)N/N=C/c1cccc(F)c1)c1cccc(CSCCO)c1` [Compound 883, N-[2-(3-Fluoro-benzylidene-hydrazinocarbonyl)-4-piperidin-1-yl-phenyl]-3-(2-hydroxy-ethylsulfanylmethyl)-benzamide], the IC50 on human NaPi-2a came out at 1.98 µM; at rat NaPi-2b it was 0.04 µM.

With `O=C(Nc1ccc(N2CCCCC2)cc1C(=O)N/N=C/c1ccc(Cl)c(C(F)(F)F)c1)c1cccc(CSCCO)c1` [Compound 884, N-[2-(4-Chloro-3-trifluoromethyl-benzylidene-hydrazinocarbonyl)-4-piperidin-1-yl-phenyl]-3-(2-hydroxy-ethylsulfanylmethyl)-benzamide], the IC50 against human NaPi-2a was found to be 35.9 µM; on rat NaPi-2b it was 0.95 µM.

Regarding `Cc1ccc(/C=N/NC(=O)c2cc(N3CCCCC3)ccc2NC(=O)c2cccc(CSCCC(=O)O)c2)cc1C` [Compound 886, 3-{3-[2-(3,4-Dimethyl-benzylidene-hydrazinocarbonyl)-4-piperidin-1-yl-phenylcarbamoyl]-benzylsulfanyl}-propionic acid], the IC50 at human NaPi-2a was 2.93 µM; on rat NaPi-2b, 0.81 µM.

With `Cc1ccc(/C=N/NC(=O)c2cc(N3CCCCC3)ccc2NC(=O)c2cccc(CSCCC(=O)O)c2)cc1` [Compound 887, 3-{3-[2-(4-Methyl-benzylidene-hydrazinocarbonyl)-4-piperidin-1-yl-phenylcarbamoyl]-benzylsulfanyl}-propionic acid], the IC50 against human NaPi-2a came out at 15.1 µM; on rat NaPi-2b, 1.75 µM.

As to `O=C(O)CCSCc1cccc(C(=O)Nc2ccc(N3CCCCC3)cc2C(=O)N/N=C/c2ccc(Cl)c(C(F)(F)F)c2)c1` [Compound 889, 3-{3-[2-(4-Chloro-3-trifluoromethyl-benzylidene-hydrazinocarbonyl)-4-piperidin-1-yl-phenylcarbamoyl]-benzylsulfanyl}-propionic acid], the IC50 against human NaPi-2a is 1.41 µM; on rat NaPi-2b, 0.33 µM.

The values above are taken from patent US8134015B2, “Compound inhibiting in vivo phosphorous transport and medicine containing the same” (Kyowa Hakko Kirin Co., Ltd., priority 2003, dated 2012).
